The values below come from PMC4479448, “Delivery of Topically Applied Calpain Inhibitory Peptide to the Posterior Segment of the Rat Eye” (PLoS ONE, 2015).

For data set [1] the following is noted: rat, in vivo; cited from earlier work.
The conditions of data set [2]: 1 mM eye drops twice a day for 7 days, adult female SD rats.
Procedure: We performed topical instillation (20 μl) of 1 mM Tat-μCL dissolved in a sterile saline solution (pH 7.4) twice a day (9 a.m. and 5 p.m.) for 7 days in both eyes of adult female SD rats (3-month-old, weighing 350–400g) without anesthesia. […] Topical application was performed in home cages using a micropipette tip with residual liquid around the eyelids wiped off by a cotton swab. Every effort was taken to minimize suffering. Before the rat eyes were enucleated, rats were euthanized with inhalation of carbon dioxide. […] At each time point, 6 rats were examined, with 3 out of the 6 right eyes used for the immunohistochemistry and all of the left eyes used for the biochemical analyses. As a control, 3 rats were topically administered sterile saline for bilaterally using the same methods described above. Animals were randomly allocated into experimental or control group. Every effort was taken to reduce the number of animal used.
Data set [3] in a line: Sandwich ELISA quantification of topically instilled peptide in retinal extract. Type of data set: in vivo, Sprague-Dawley rats. The conditions noted are these: for roughly equivalent concentration of the peptide in the intracellular space: converted from ELISA value; for concentration of the Tat-μCL in the retina: 1 mM, 20 μl eye drops twice a day for 7 days, whole retina extract, sandwich ELISA, average ± SD, n = 6 eyes (6 rats). As to the method: (§1) Every effort was taken to minimize suffering. […] Animals were randomly allocated into experimental or control group.
The amount of the peptide delivered to the retina was quantified by sandwich ELISA as per a previously reported method. In this procedure, we first added 50 μl of rabbit polyclonal anti-HIV1 tat antibody (1:2000, ab43014, Abcam) diluted with 0.05 M carbonate-bicarbonate buffer, pH 9.6, to 96-well immunoplates (Nunc, Roskilde, Denmark). After incubating the plates overnight at 4°C, the plates were washed three times with PBS-T, and then incubated with PBS-T containing 10% bovine serum albumin (BSA) at 37°C for 2 h. Subsequently, we then washed the plates with PBS and incubated the plates with 50 μl of retinal extract or standard peptide (100 amol, 1 fmol, 10 fmol, 100 fmol, 1 pmol, 10 pmol, 100 pmol and 1 nmol Tat-μCL) diluted with PBS-T containing 10% BSA at 37°C for 2 h. The retinal extract was obtained by sonication and gradual centrifugations at 600×g for 5 min, 4,500×g for 10 min, and 20,000×g for 20 min. The supernatant of the final centrifugation was used as the retinal extract. The protein concentration was measured by the Bradford’s assay with bovine serum albumin used as the standard. After washing the plate three times with PBS-T, the plates were incubated with 50 μl of mouse monoclonal anti-HIV1 tat antibody (1:1000, ab63957, Abcam) diluted with PBS-T containing 10% BSA at 37°C for 2 h. Subsequently, the plates were then washed three times with PBS-T and incubated with horse radish peroxidase (HRP)-conjugated rabbit anti-mouse IgG (1:1000) diluted with PBS-T containing 10% BSA at 37°C for 2 h. After incubation, the plates were washed three times with PBS-T and then once with distilled water. The reaction was performed by incubating the plates with 50 μl of citrate-phosphate buffer, pH 5.0, containing 0.04% o-phenylenediamine and 0.006% hydrogen peroxide. Color development was inhibited by the addition of 50 μl of 2.4 M sulfuric acid. Absorbance was determined at 492 nm.
All statistical analyses were conducted using the SPSS version 22 software program (IBM, Armonk, NY). A one-way ANOVA was used to statistically compare the results between multiple groups. And then, as a post hoc analysis, a Dunnett T3 test was used to determine significance between the two groups. In the present study, P < 0.05 was considered statistically significant. Experiments were performed in triplicate to confirm the reproducibility.
Background: In an ELISA, binding on a coated surface is turned into a signal by an enzyme label.

Data set [4] in a line: Immunohistochemical distribution of topically instilled peptide in and around the eye (anti-HIV1 tat antibody). It counts as in vivo, Sprague-Dawley rats. To be noted: for distribution of topically instilled peptide (immunoreactivity): n = 3 eyes (3 rats). As to the method:
as §1
Distribution of the peptide was analyzed by immune-positive reactions observed in and around the rat eyes. Immunohistochemical experiments were performed in line with our previously reported method. Briefly, rats were euthanized after the final eye drop instillation by inhalation of carbon dioxide at 1, 3 and 6 h. Eyes were immediately enucleated after euthanasia. For the immunohistochemistry, eyes were fixed in 4% paraformaldehyde in phosphate-buffered saline (PBS), pH 7.4, for 20 min at room temperature. Eyes were then placed in the fixative overnight at 4°C. Specimens were cryoprotected for 4 h in 10% then 20% sucrose in PBS, and then frozen in OCT compound. […] The sections were rinsed in PBS and blocked with 1% skim milk in PBS containing 0.05% Tween (PBS-T) for 2 h at room temperature. Sections were incubated overnight at 4°C with the mouse monoclonal antibody raised against HIV1 tat (ab63957, 1:200, Abcam, Cambridge, UK) diluted in 1% skim milk in PBS-T as the primary antibody. Sections were then washed with PBS-T and incubated with tetramethylrhodamine isothiocyanate isomer R (TRITC)-conjugated rabbit anti-mouse IgG (R0270, 1:200, Dako, Glostrup, Denmark) overnight at 4°C. Sections were washed with PBS-T and nuclei were counterstained with 4’ 6-diamidino-2-phenylindole (DAPI). Immunofluorescent images were obtained by laser confocal microscopy (FV1000-D; Olympus, Tokyo, Japan).

In another data set the test system is photoreceptors. The conditions noted are these: topical instillation of 1 mM eye drops, rhodopsin P23H transgenic rats; cited from earlier work. The source says:
Every effort was taken to minimize suffering. Before the rat eyes ... || Calpains are members of the Ca^2+-activated cysteine proteinases and play important roles in various physiological and pathological pathways, such as regulating signal transductions, the cell cycle, cell adhesion, gene expression, and cell death.

Where a SMILES comes first, the peptide text is derived from it.

On to nerve growth factor, for which the “time of peak in the retina after eye drop application” value in data set [1] was 6 h.

`CC(C)C[C@H](NC(=O)[C@H](C)NC(=O)[C@H](CC(=O)O)NC(=O)[C@@H]1CCCN1C(=O)[C@H](CCC(N)=O)NC(=O)[C@@H]1CCCN1C(=O)[C@@H]1CCCN1C(=O)[C@H](CCCNC(=N)N)NC(=O)[C@H](CCCNC(=N)N)NC(=O)[C@H](CCCNC(=N)N)NC(=O)[C@H](CCC(N)=O)NC(=O)[C@H](CCCNC(=N)N)NC(=O)[C@H](CCCNC(=N)N)NC(=O)[C@H](CCCCN)NC(=O)[C@H](CCCCN)NC(=O)[C@H](CCCNC(=N)N)NC(=O)CN)C(=O)N[C@@H](CCCCN)C(=O)N[C@@H](CO)C(=O)N[C@@H](CCCNC(=N)N)C(=O)N[C@H](C(=O)N[C@@H](CC(C)C)C(=O)N[C@@H](CCCNC(=N)N)C(=O)O)[C@@H](C)O` [Tat-μCL] (H-GRKKRRQRRRPPQPDALKSRTLR-OH): the figures for the adverse effects entry (in data set [2]; in the data set with photoreceptors) were “without any adverse effects” and “without causing any adverse effects”, respectively. Moreover, the “roughly equivalent concentration of the peptide in the intracellular space” value was approximately 4.48 µM in data set [3] (1 h after final eye drops), approximately 1.70 µM in data set [3] (3 h after final eye drops) and approximately 0.29 µM in data set [3] (6 h after final eye drops). The “concentration of the Tat-μCL in the retina” value worked out at 15.3 pg/μg protein in data set [3] (1 h after final instillation), 5.8 pg/μg protein in data set [3] (3 h after final instillation) and 1.0 pg/μg protein in data set [3] (6 h after final instillation). Moreover, the “time for which sufficient concentration (> IC50) is maintained in the rat retina” value in data set [3] (after final application of 1 mM eye drops) was “at least 6 h”. Moreover, the “half-life of Tat-μCL in the rat retina” value in data set [3] (estimated from ELISA results (Fig 4), topical 1 mM eye drops) is “approximately 2.6 h”. Further, in data set [4] (anterior segment tissues, examined at 1 and 3 h), the “time after final application of most prominent immunoreactivity” value is given as 1 h. Besides, the “distribution of topically instilled peptide (immunoreactivity)” value is “diffusely distributed in the various tissues including the cornea, sclera, iris, ciliary body, choroid and retinal pigment epithelium (RPE)” in data set [4] (anterior segment); “detected in the optic nerve, optic nerve sheath, optic disc, all layers of the retina, and the retrobulbar connective tissues” in data set [4] (optic disc area); “diffusely distributed throughout the retina, including the photoreceptor outer segments, outer nuclear layer, inner nuclear layer, and ganglion cell layer” in data set [4] (posterior segment). For the same molecule, in data set [4] (optic disc area, examined at 1, 3 and 6 h), the “time after final instillation of most prevalent immunoreactivity” value was 1 h. Also, the “time after final application of most abundant immunoreactivity” value in data set [4] (posterior segment, examined at 1, 3 and 6 h) amounted to 1 h.
